Values after ≈ are worked out from the molar mass of the structure shown. Like-named read-outs stand apart in the source and are kept apart here.
Legend:
[1] = Antioxidant activity, DPPH radical reaction; type: biochemical; details: free substance; linear regression
Experimental: The antioxidant activity was evaluated using the DPPH radical reaction. The investigation of antioxidant properties was performed spectrophotometrically, according to Studzińska-Sroka’s modifications. […] 25.0 µL of DPPH solution was mixed with 175.0 µL of studied solutions in a 96-well plate, and then the plate was shaken and incubated in darkness for half an hour at room temperature. Subsequently, the absorbance (A) was measured at the wavelength set at 517 nm against the blank (the mixture of DPPH solution and methanol). The inhibition of the DPPH radical by the studied samples was calculated due to the following equation: A=Ao − Ai/Ao x 100% where Ao is the absorbance of the control sample, Ai is the absorbance of studied samples. Every determination was repeated six times. As a reference, vitamin C was used. IC50 values, which determine the concentration of the substance that inhibits the formation of DPPH by 50%, were determined by linear regression analysis.

[2] = system: C. albicans ATTC 10231; test: Agar well diffusion technique; type: cell-based; details: 25 mg/mL dissolved in methanol and filtered
[3] = system: B. subtillis ATCC 238557; test: Agar well diffusion technique; type: cell-based; details: 25 mg/mL dissolved in methanol and filtered
[4] = system: P. aereuginosa ATCC 27853; test: Agar well diffusion technique; type: cell-based; details: 25 mg/mL dissolved in methanol and filtered
[5] = system: S. pyrogenes ATCC 19615; test: Agar well diffusion technique; type: cell-based; details: 25 mg/mL dissolved in methanol and filtered
[6] = PAMPA gastrointestinal (GIT) permeability; type: in vitro ADME
Excerpt: (§1) In vitro gastrointestinal (GIT) and blood–brain barrier (BBB) permeability was studied using the PAMPA model (Parallel Artificial Membrane Permeability Assay). The sandwich consists of two 96-well microfilter plates. The PAMPA system contains two chambers: the donor at the bottom and the acceptor chamber at the top. The chambers are separated by a 120-μm-thick microfilter disc coated with a 20% (w/v) dodecane solution of a lecithin mixture (Pion, Inc.). Before adding samples to the donor compartments, the samples were dissolved in DMSO. The donor solution was adjusted to pH ≈ 6.8 for GIT application and to pH ≈ 7.4 for BBB application using 0.5 M NaOH. The plates were combined and then incubated for 3 h for GIT model and 4 h for BBB model in a humidity-saturated atmosphere at the temperature set at 310 K. The apparent permeability coefficient (Papp) was calculated according to the following equation: Papp=−ln(1−CA/Cequilibrium)/S×(1/VD+1/VA)×t where VD – donor volume, VA – acceptor volume, Cequilibrium – equilibrium concentration Cequilibrium=CD×VD+ CA×VA/VD+VA, S – membrane area, t – incubation time (in seconds).

[7] = system: C. difficile ATCC 9689; test: Agar well diffusion technique; type: cell-based; details: 25 mg/mL dissolved in methanol and filtered
[8] = system: S. typhimurium ATCC 14028; test: Agar well diffusion technique; type: cell-based; details: 25 mg/mL dissolved in methanol and filtered
[9] = system: E. faecalis ATTC 29212; test: Agar well diffusion technique; type: cell-based; details: 25 mg/mL dissolved in methanol and filtered
[10] = system: E. aerogenes ATCC 13048; test: Agar well diffusion technique; type: cell-based; details: 25 mg/mL dissolved in methanol and filtered
[11] = system: S. aureus ATCC 25923; test: Agar well diffusion technique; type: cell-based; details: 25 mg/mL dissolved in methanol and filtered
[12] = PAMPA blood–brain barrier (BBB) permeability; type: in vitro ADME
Excerpt: as §1
Compounds with high permeability have the Papp value at the level >4.0 × 10^−6 cm s^−1 [28].

[13] = system: K. pneumoniae ATCC 31488; test: Agar well diffusion technique; type: cell-based; details: 25 mg/mL dissolved in methanol and filtered
[14] = piperine after incorporation into the cavity of β-cyclodextrin; cited from earlier work
[15] = system: C. krusei ATCC 14243; test: Agar well diffusion technique; type: cell-based; details: 25 mg/mL dissolved in methanol and filtered
[16] = system: L. monocytogenes ATCC 7644; test: Agar well diffusion technique; type: cell-based; details: 25 mg/mL dissolved in methanol and filtered
[17] = system: P. mirabilis ATCC 12453; test: Agar well diffusion technique; type: cell-based; details: 25 mg/mL dissolved in methanol and filtered
[18] = system: E. coli ATCC 25922; test: Agar well diffusion technique; type: cell-based; details: 25 mg/mL dissolved in methanol and filtered
[19] = system: C. butyricum ATTC 860; type: cell-based; details: 25 mg/mL dissolved in methanol and filtered

SMILES | IC50 DPPH [1] [mg/mL] | Inhibition zone (mm) – Agar well diffusion technique [2] [mm] | Inhibition zone (mm) – Agar well diffusion technique [3] [mm] | Inhibition zone (mm) – Agar well diffusion technique [4] [mm] | Inhibition zone (mm) – Agar well diffusion technique [5] [mm] | Inhibition zone (mm) – Agar well diffusion technique [7] [mm] | Inhibition zone (mm) – Agar well diffusion technique [8] [mm] | Inhibition zone (mm) – Agar well diffusion technique [9] [mm] | Inhibition zone (mm) – Agar well diffusion technique [10] [mm] | Inhibition zone (mm) – Agar well diffusion technique [11] [mm] | Inhibition zone (mm) – Agar well diffusion technique [13] [mm] | Inhibition zone (mm) – Agar well diffusion technique [15] [mm] | Inhibition zone (mm) – Agar well diffusion technique [16] [mm] | Inhibition zone (mm) – Agar well diffusion technique [17] [mm] | Inhibition zone (mm) – Agar well diffusion technique [18] [mm] | Inhibition zone (mm) – Agar well diffusion technique [19] [mm] | other results
O=C1O[C@H]([C@@H](O)CO)C(O)=C1O [Vitamin C] | 0.066 (≈ 0.375 mM) | – | – | – | – | – | – | – | – | – | – | – | – | – | – | – | –
O=C(/C=C/C=C/c1ccc2c(c1)OCO2)N1CCCCC1 [Piperine, piperine] | 38.945 (≈ 136 mM) | 2.5 | 7.0 | 1.5 | 2.5 | 3.5 | 1.5 | 9.0 | 1.0 | 3.0 | 2.0 | 2.5 | 5.0 | 1.0 | 2.0 | 5.5 | Papp at 3 h ([6]; donor pH ≈ 6.8, 3 h, 310 K, read-out: Papp of piperine, GIT PAMPA): 19 ×10⁻⁶ cm/s; Papp at 4 h ([12]; PAMPA, donor pH ≈ 7.4, 4 h, 310 K, read-out: Papp of piperine, BBB PAMPA): 11.9 ×10⁻⁶ cm/s; permeability classification, BBB PAMPA ([12]; Papp > 4.0 × 10^−6 cm s^−1 = high permeability): well permeable; increase of solubility of piperine [14]: about 16 folds
COc1cc(/C=C/C(=O)CC(=O)/C=C/c2ccc(O)c(OC)c2)ccc1O [Curcumin, Diferuloylmethane] | – | 4.5 | 8.5 | 2.5 | 5.0 | 6.5 | 5.5 | 10.5 | 2.5 | 4.0 | 2.5 | 2.0 | 5.0 | 3.0 | 3.0 | 5.5 | permeability classification, GIT PAMPA [6]: well permeable; Papp at 3 h ([6]; pH 6.8): 3.46 ×10⁻⁶ cm/s; permeability classification, BBB PAMPA ([12]; PAMPA): well permeable; Papp at 4 h ([12]; PAMPA, pH 7.4): 31.1 ×10⁻⁶ cm/s
